Tests used:
[1] = system: Monoclonal Antibody TCA 1.1; assay: Competitive microplate ELISA of imipramine with monoclonal antibody TCA 1.1, wells coated with compound 11 conjugate; format: binding, mouse; conditions: compound 11 coated wells, mAb TCA 1.1
Procedure: (§1) To analyze the sera for antibody content an ELISA assay using the cognate antigen linked to a different protein (2-carboxypropyl-dihydroamitriptyline-BSA) (compound 11) was used. This antigen was diluted to 5 μg/ml in 0.1 M carbonate buffer, pH 9.5. A volume of 100 μl of this antigen solution was pipetted into wells of a polystyrene 96-well microplate (Costar, Cambridge, Mass.). This was incubated in a plastic bag at 37° C. for 1 hour. The solutions were then removed via suction, and wells were filled with a blocking solution. This consisted of gelatine hydrolysate, 1%, sucrose, 2%, Tris, 0.15 M, pH 7.4 (all reagents from Sigma Chemicals). This was allowed to block the plates for 1 hour at room temperature in plastic bags. Wells were then emptied via suction.
(§2) Dilutions of the sera were prepared by transferring 1 μl to a glass test tube containing 1 ml of phosphate buffered saline, with 0.1% Tween 20 (PBS-T). One hundred and fifty microliters of this dilution of each serum were transferred to wells in Row A of a polyvinyl chloride microplate. All other wells were filled with 100 μl of PBS-T. Serial three-fold dilutions were prepared by transferring 50 μl from Row A to Row B using a multi-channel micropipettor. Mixing was accomplished by re-pipetting 3 times. This was repeated from Row B to C and so on down each column of wells.
(§3) Once all dilutions were prepared, 95 μl of each, starting with Row H, was transferred to the same row in the coated plate. The plate was placed in a Ziploc plastic bag with a damp piece of paper towel and incubated at 37° C. for one hour. Following incubation, the wells were washed four times manually with 300 μl aliquots of PBS-T. A 1:5000 dilution of goat anti-mouse IgG AM-HRP conjugate (Kirkegaard & Perry, Gaithersburg, Md.) was prepared in PBS-T. 100 μl of this was then pipetted into each well, the plate again incubated as above. The plate was then washed 6 times with 300 μl of PBS-T manually, and 100 μl of K-Blue substrate (Neogen, Lexington, Ky.) was added to each well. This was allowed to develop in the dark for 5 minutes, and the reaction was then stopped by the addition of 100 μl of a 2 M phosphoric acid solution. The optical densities of the wells were read using a Molecular Devices Tmax plate reader and a Macintosh computer.
(§4) Hybridoma clone TCA 1.1 was placed into high-density culture and supernatant harvested. This preparation was preserved by the addition of thimerosal to a concentration of 0.02%. Antibody content was evaluated by a titer experiment in which varying dilutions of supernatant were placed into microplate wells coated with a constant amount of antigen conjugate.
(§5) Incubation for 1 hour at 37° C. was followed by the same procedure as for the screening assays. Optical densities were plotted versus the final concentration of imipramine calculated as a molar (gram-molecular weight drug per liter) concentration.

[2] = system: Monoclonal Antibody TCA 1.1; assay: Competitive microplate ELISA of imipramine with monoclonal antibody TCA 1.1, wells coated with compound 27 conjugate; format: binding, mouse; conditions: compound 27 coated wells, mAb TCA 1.1
Procedure: as §1, §2, §3
This animal received a booster immunization of 100 μg of antigen in incomplete Freund's adjuvant four days before the fusion was performed. The myeloma cell line F0 (ATCC, Manassas, Va.) was used for the fusion. The fusion was performed by the method of de St Groth and Scheidegger, Journal of Immunol. Meth. 35, 1-21, 1980. Ten days later hybrid cell cultures were ready for screening.
as §4, §5

[3] = imipramine final concentration 1.98 × 10^−6 molar
[4] = imipramine final concentration 2.2 × 10^−7 molar
[5] = imipramine final concentration 2.45 × 10^−8 molar
[6] = imipramine final concentration 6.6 × 10^−7 molar
[7] = imipramine final concentration 7.43 × 10^−8 molar
[8] = imipramine final concentration 8.15 × 10^−9 molar

## CN(C)CCCN1c2ccccc2CCc2ccccc21 [Imipramine, imipramine]
[1]; [3]
  OD450 compound 11: 0.056
[1]; [4]
  OD450 compound 11: 1.35
[1]; [5]
  OD450 compound 11: 2.325
[1]; [6]
  OD450 compound 11: 0.541
[1]; [7]
  OD450 compound 11: 1.95
[1]; [8]
  OD450 compound 11: 2.6
[2]; [3]
  OD450 compound 27: 0.037
[2]; [4]
  OD450 compound 27: 0.276
[2]; [5]
  OD450 compound 27: 1.719
[2]; [6]
  OD450 compound 27: 0.038
[2]; [7]
  OD450 compound 27: 1.124
[2]; [8]
  OD450 compound 27: 2.434

From patent US6368814B1, “Tricyclic antidepressant derivatives and immunoassay” (Roche Diagnostics Corporation, priority 2000, dated 2002)
